{
  "source": "paper PMC11369160",
  "about": "“An outer membrane porin-lipoprotein complex modulates elongasome movement to establish cell curvature in Rhodospirillum rubrum” (Nature Communications, 2024)",
  "experiment_in_all_cases": "microscale thermophoresis",
  "key": {"[1]": {"target": "T1, OmpA-like peptidoglycan-binding domain of R. rubrum PapS (Rhodospirillum rubrum, UniProt Q2RP23, R223A)", "T1 construct": "gene Rru_A3328; isolated C-terminal OmpA-like domain, residues 156-273; His6-SUMO tag cut by Ulp1; E. coli Rosetta(DE3)pLysS; RED-NHS labelled", "T1 sequence (Q2RP23 entry or part of it R223A)": "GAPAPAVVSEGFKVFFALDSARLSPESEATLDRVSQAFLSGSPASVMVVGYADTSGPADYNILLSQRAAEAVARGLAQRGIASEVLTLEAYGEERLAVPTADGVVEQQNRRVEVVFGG", "conditions": "MST buffer 25 mM HEPES/NaOH pH 8, 50 mM NaCl, 0.1% Tween; 25 °C; 100 nM RED-NHS labelled protein; mDAP 1.5 µM to 50 mM"}, "[2]": {"target": "T2, A. baumannii OmpA (OmpA-like peptidoglycan-binding domain) (Acinetobacter baumannii, UniProt Q6RYW5)", "T2 construct": "gene omp38; isolated periplasmic OmpA-like domain, residues 221-339; His6-SUMO tag cut by Ulp1; E. coli Rosetta(DE3)pLysS; RED-NHS labelled", "T2 sequence (Q6RYW5 221-339)": "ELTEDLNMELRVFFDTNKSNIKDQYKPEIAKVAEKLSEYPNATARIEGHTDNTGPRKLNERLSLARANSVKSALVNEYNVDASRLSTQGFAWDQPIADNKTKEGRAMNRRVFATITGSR"}, "[3]": {"target": "T3, OmpA-like peptidoglycan-binding domain of R. rubrum PapS (Rhodospirillum rubrum, UniProt Q2RP23)", "T3 construct": "gene Rru_A3328; isolated C-terminal OmpA-like domain, residues 156-273; His6-SUMO tag cut by Ulp1; E. coli Rosetta(DE3)pLysS; RED-NHS labelled", "T3 sequence (Q2RP23 entry or part of it)": "as the sequence (Q2RP23 entry or part of it R223A) above, with A68R counted along it", "from_the_text": "microscale thermophoresis on OmpA-like peptidoglycan-binding domain of R. rubrum PapS | isolated OmpA-like domain of PapS bound mDAP in vitro, albeit with lower affinity"}},
  "data": [
    {"molecule": "N[C@H](CCC[C@H](N)C(=O)O)C(=O)O", "note": "[mDAP]", "values": [
      {"measurement": "mDAP binding", "setting": "[1]", "value": "In vitro analysis verified that the mutant domain no longer showed mDAP-binding activity"},
      {"measurement": "Kd", "setting": "[2]", "value": 9, "unit": "µM"},
      {"measurement": "Kd", "setting": "[3]", "value": 2500, "unit": "µM"}
    ]}
  ]
}
